Where two headings read alike, the source gives them in different places.
Legend:
[1] = target: T1, CIB1 and αIIb interaction (CIB1-GST : F-αIIb peptide) (Homo sapiens, UniProt Q99828); assay: FP assay, 1536-well qHTS format (primary and confirmatory screen); type: binding; conditions: for Curve Class (confirmatory screen) / CONFIRMATORY SCREEN Curve Class: qHTS curve class
T1 construct: made in house; host or cells: BL-21 plus RIL cells (E. coli)
T1 sequence (Q99828 1-191): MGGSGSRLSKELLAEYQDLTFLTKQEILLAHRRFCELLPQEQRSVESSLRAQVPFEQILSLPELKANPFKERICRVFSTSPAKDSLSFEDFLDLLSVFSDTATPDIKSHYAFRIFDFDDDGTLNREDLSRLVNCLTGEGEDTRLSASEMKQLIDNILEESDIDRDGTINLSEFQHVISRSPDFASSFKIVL

[2] = target: T2, GST-CIB1 : F-scrambled peptide (Homo sapiens, UniProt Q99828); assay: FP scrambled-peptide counter screen, 1536-well format; type: binding; conditions: for Curve Class (counterscreen) / COUNTERSCREEN Curve Class: qHTS curve class; for COUNTERSCREEN Confirm?: YES/NO call
T2 construct: made in house; host or cells: BL-21 plus RIL cells (E. coli)
T2 sequence (Q99828 1-191): T1 sequence (Q99828 1-191)

[3] = Table S3, confirmatory screen, a negative sign marks inhibitory curves
[4] = Table S3, confirmatory screen, negative = inhibition
[5] = qHTS primary screen hits, Table S2, negative = inhibition
[6] = qHTS primary screen hits, Table S2, negative sign = inhibitory curve, several classes where COUNT > 1
[7] = qHTS primary screen hits, Table S2, read-out: IC50
[8] = Table S3, counterscreen, a negative sign marks inhibitory curves
[9] = Table S3, counterscreen, negative = inhibition
[10] = Table S3, counterscreen, read-out: IC50 [μM] (counterscreen)
[11] = confirmatory screen, YES/NO call
[12] = confirmatory screen, negative sign = inhibitory curve
[13] = confirmatory screen, negative = inhibition
[14] = confirmatory screen, read-out: CONFIRMATORY SCREEN IC50
[15] = qHTS FP screen hits, Table S2, negative = inhibition
[16] = qHTS FP screen hits, Table S2, read-out: IC50
[17] = scrambled-peptide counterscreen

Row | Efficacy (%) [1, 15] [%] | IC50 [1, 16] [µM] | Compound | Curve Class (confirmatory screen) [1, 3] | Efficacy (%) (confirmatory screen) [1, 4] | Efficacy (%) [1, 5] [%] | Curve Class [1, 6] | IC50 [1, 7] [µM] | Curve Class (counterscreen) [2, 8] | Efficacy (%) (counterscreen) [2, 9] | CONFIRMATORY SCREEN Efficacy (%) ([1]; confirmatory screen) | CONFIRMATORY SCREEN Curve Class ([1]; confirmatory screen) | COUNTERSCREEN Efficacy (%) ([2]; counterscreen) | COUNTERSCREEN Curve Class ([2]; counterscreen) | further results
1 | – | – | O=C(Cc1ccccc1)NC(c1ccco1)c1cc(Cl)c2cccnc2c1O.O=C(O)C(F)(F)F (centres unmarked) [NCGC00188377-01] | 4 | -25 | -35 | -2.2 | 39.8 | 3 | 61 | – | – | – | – | IC50 [2, 10]: 89.1 µM
2 | – | – | CS(=O)(=O)c1ccc(C(=O)OCC(=O)N2CCN(CCC3CCCCC3)CC2)cc1[N+](=O)[O-].O=C(O)C(F)(F)F [NCGC00188531-01] | -3 | -49 | -26 | -1.4 | 0.9 | -2.2 | -50 | – | – | – | – | Confirm? (confirmatory screen) ([1]; Table S3, confirmatory screen, YES/NO call): YES; IC50 ([1]; Table S3, confirmatory screen, read-out: IC50 [μM] (confirmatory screen)): 39.8 µM; IC50 [2, 10]: 39.8 µM
3 | -25 | 1.3 | CCCC1CCN(C(=O)COC(=O)c2ccc(S(C)(=O)=O)c([N+](=O)[O-])c2)CC1 [NCGC00188533-01] | – | – | – | – | – | – | – | – | – | – | – | CONFIRMATORY SCREEN Confirm? [1, 11]: YES; CONFIRMATORY SCREEN Curve Class [1, 12]: -1.4; CONFIRMATORY SCREEN Efficacy (%) [1, 13]: -28%; IC50 [1, 14]: 2.5 µM; COUNTERSCREEN Efficacy (%) [2, 17]: -28%; COUNTERSCREEN Confirm? [2, 17]: YES; COUNTERSCREEN Curve Class [2, 17]: 4
4 | – | – | CC(OC(=O)c1ccc(S(C)(=O)=O)c([N+](=O)[O-])c1)C(=O)NC1C2CC3CC(C2)CC1C3 (centres unmarked) [NCGC00188535-01] | – | – | -30 | -1.2 | 1.8 | – | – | -32 | 4 | -20 | 4 | –
5 | – | – | CCC(OC(=O)c1ccc(S(C)(=O)=O)c([N+](=O)[O-])c1)C(=O)NC1C2CC3CC(C2)CC1C3 (centres unmarked) [NCGC00188536-01] | – | – | -27 | -1.4 | 1.4 | – | – | – | – | – | – | CONFIRMATORY SCREEN Confirm? [1, 11]: YES; CONFIRMATORY SCREEN Curve Class [1, 12]: -1.4; CONFIRMATORY SCREEN Efficacy (%) [1, 13]: -52%; IC50 [1, 14]: 2.5 µM; COUNTERSCREEN Efficacy (%) [2, 17]: -50%; COUNTERSCREEN Confirm? [2, 17]: YES; COUNTERSCREEN Curve Class [2, 17]: -2.2; IC50 ([2]; scrambled-peptide counterscreen, read-out: COUNTERSCREEN IC50): 31.6 µM
6 | -25 | 0.7 | CS(=O)(=O)c1ccc(C(=O)OCC(=O)N2CCC(Cc3ccccc3)CC2)cc1[N+](=O)[O-] [NCGC00188541-01] | – | – | – | – | – | – | – | -18 | 4 | -22 | 4 | –
7 | – | – | O=C(O)C(F)(F)F.O=C1CCCC2=C1C1(CCCOC1)N=C(Nc1nc3ccccc3o1)N2 (centres unmarked) [NCGC00188575-01] | – | – | -34 | -2.2 | 28.2 | – | – | -18 | 4 | -21 | 4 | –
8 | -66 | 44.7 | O=C(O)c1ccccc1SC1=NS(=O)(=O)c2ccccc21 [NCGC00188636-02] | 4 | -29 | – | – | – | 4 | 0 | – | – | – | – | Curve Class ([1]; qHTS FP screen hits, Table S2, one class per curve where COUNT > 1, negative sign = inhibitory curve): -2.2

Row | Compound | Efficacy (%) [1, 15] [%] | IC50 [1, 16] [µM] | Curve Class (confirmatory screen) [1, 3] | Efficacy (%) (confirmatory screen) [1, 4] | Efficacy (%) [1, 5] [%] | Curve Class [1, 6] | IC50 [1, 7] [µM] | Curve Class (counterscreen) [2, 8] | Efficacy (%) (counterscreen) [2, 9] | CONFIRMATORY SCREEN Efficacy (%) ([1]; confirmatory screen) | CONFIRMATORY SCREEN Curve Class ([1]; confirmatory screen) | COUNTERSCREEN Efficacy (%) ([2]; counterscreen) | COUNTERSCREEN Curve Class ([2]; counterscreen) | further results
9 | Cn1c(NC2=NC3(CCCC3)C3=C(CCCC3=O)N2)nc2ccccc21.O=C(O)C(F)(F)F [NCGC00188583-01] | -27 | 7.1 | – | – | – | – | – | – | – | – | – | – | – | Efficacy (%) (confirmatory screen) ([1]; confirmatory screen): -31%; Confirm? (confirmatory screen) ([1]; confirmatory screen, YES/NO): YES; Curve Class (confirmatory screen) [1, 12]: -2.4; IC50 ([1]; confirmatory screen, read-out: IC50 [μM] (confirmatory screen)): 89.1 µM; Efficacy (%) (counterscreen) ([2]; counterscreen): -13%; Confirm? (counterscreen) ([2]; counterscreen, YES/NO): YES; Curve Class (counterscreen) ([2]; counterscreen, negative sign = inhibitory curve): 4
10 | O=C(O)C(F)(F)F.O=C1CCCC2=C1C1(CCOCC1)N=C(Nc1nc3ccccc3o1)N2 [NCGC00188584-01] | -26 | 15.8 | – | – | – | – | – | – | – | 0 | 4 | -16 | 4 | –

Reference: paper PMC11249646, “Small-Molecule Disruptors of the Interaction between Calcium- and Integrin-Binding Protein 1 and Integrin αIIbβ3 as Novel Antiplatelet Agents” (ACS Pharmacology & Translational Science, 2024)
